Among the data in patent US20260022142A1, “MACROCYCLIC IMMUNOMODULATORS” (Bristol-Myers Squibb Company, priority 2022, published 2026) are IC50 values, retold here.

A word on the IC50: it is the concentration that inhibits the measured activity by half.

Each structure is given as a SMILES string. Numbered stars: 1 amine (or outer) side, 2 acyl side, 3 side chain; on linkers, the order of the positions; unused ones are H or OH. Bridge positions count the residues as written; N and C are the ends. Square brackets hold non-standard residues; d marks the D form. Peptide text beside a SMILES is read from it. * marks the point of attachment. ξ: configuration not given here. Bip = N[CH](Cc1ccc(-c2ccccc2)cc1)C(=O)O; Phe(3-Me) = Cc1cccc(C[C@H](N)C(=O)O)c1; γGlu = O=C(O)[C@H](CCC(=O)[*:2])N[*:1]; NH(CH2)12COOH = O=C(O)CCCCCCCCCCCCN*; Cha = N[CH](CC1CCCCC1)C(=O)O; Ile(3ξ) = CCC(C)[C@H](N)C(=O)O; 4Pal = N[CH](Cc1ccncc1)C(=O)O; Thr(3ξ) = CC(O)[C@H](N)C(=O)O; 12Ado = NCCCCCCCCCCCC(=O)O; dOrn = NCCC[C@@H](N)C(=O)O; Carboxymethyl = O=C(O)C*; Orn = NCCC[CH](N)C(=O)O; Aun = NCCCCCCCCCCC(=O)O; Dab = NCC[CH](N)C(=O)O; AEEA = NCCOCCOCC(=O)O

In the test the target is T1, PD-1/PD-L1 interaction (PE-labeled human PD-L1-Ig binding to Jurkat cell line over-expressing human PD-1) (Homo sapiens, UniProt Q15116).
T1 construct: expressed in transfected cells; host or cells: Jurkat
T1 sequence (Q15116 25-288): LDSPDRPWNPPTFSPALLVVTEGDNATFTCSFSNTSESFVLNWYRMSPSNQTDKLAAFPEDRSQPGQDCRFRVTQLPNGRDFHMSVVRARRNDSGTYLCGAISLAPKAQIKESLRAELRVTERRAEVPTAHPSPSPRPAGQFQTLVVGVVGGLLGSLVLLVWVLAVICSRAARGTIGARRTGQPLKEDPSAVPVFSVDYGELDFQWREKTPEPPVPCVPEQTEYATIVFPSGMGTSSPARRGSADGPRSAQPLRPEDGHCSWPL
Description: Jurkat-PD-1 Cell Binding High-Content Screening Assay (CBA). It is filed as cell-based. Particulars: Jurkat cell line over-expressing human PD-1; PE-labeled PD-L1-Ig 20 nM final; read-out: Jurkat hPD1-PDL1 IC50. An outline of the steps:
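Human PD-L1-Ig carrying a covalent PE label on its Ig tag serves as the probe, applied at 20 nM final to compound-treated (2 h, 37° C) Jurkat-hPD-1 cells in medium with 10% fetal calf serum. After one hour, fixation and nuclear staining precede high-content image analysis.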
Regarding `CCC(C)[C@@H]1NC(=O)[C@H](Cc2ccc(-c3ccccc3)cc2)NC(=O)[C@H](CC(C)C)NC(=O)[C@H](Cc2cccc(C)c2)NC(=O)[C@H](CC(=O)O)NC(=O)[C@H](Cc2ccc(OCC(=O)O)cc2)NC(=O)[C@H](Cc2ccc(OCC(=O)O)cc2)NC(=O)CSC[C@@H](C(=O)NCCOCCOCC(=O)N[C@@H](CCC(=O)NCCCCCCCCCCC(=O)O)C(=O)O)NC(=O)[C@H](CO)NC(=O)[C@H](C(C)C)NC(=O)[C@H](CC(C)C)NC(=O)[C@H](CCN)NC(=O)[C@@H](CC(C)C)NC(=O)[C@H](CCCN)NC1=O` (stereo partly drawn) [Compound 3085] ({CH2CO}-Y(Carboxymethyl)Y(Carboxymethyl)D[Phe(3-Me)]L[Bip][Ile(3ξ)][Orn][dL][Dab]LVSC[AEEA][γGlu][Aun]-OH; thioether N-14), the IC50 came out at 0.012 µM.

For the compound `CCC(C)C1NC(=O)C(Cc2ccc(-c3ccccc3)cc2)NC(=O)C(CC(C)C)NC(=O)C(Cc2c[nH]c3ccccc23)NC(=O)C(CC(=O)O)NC(=O)C(Cc2ccc(OCC(=O)O)cc2)NC(=O)C(Cc2ccncc2)NC(=O)CSCC(C(=O)NCCOCCOCC(=O)NC(CCCN)C(=O)NCCCCCCCCCCC(=O)O)NC(=O)C(C(C)O)NC(=O)C(C(C)C)NC(=O)C(CC2CCCCC2)NC(=O)C(CCN)NC(=O)C(CC(C)C)NC(=O)C(CCCN)NC1=O` (stereo not shown) [Compound 3089] ({CH2CO}-[4Pal]Y(Carboxymethyl)DWL[Bip]I[Orn]L[Dab][Cha]VTC[AEEA][Orn][Aun]-OH; thioether N-14; configuration not given here), the IC50 came to 0.0392 µM.

For `CCC(C)[C@@H]1NC(=O)[C@H](Cc2ccc(-c3ccccc3)cc2)NC(=O)[C@H](C(C)C)NC(=O)[C@H](Cc2c[nH]c3ccccc23)NC(=O)[C@H](CC(=O)O)NC(=O)[C@H](Cc2ccc(OCC(=O)O)cc2)NC(=O)[C@H](C(C)O)NC(=O)CSC[C@@H](C(=O)N[C@H](CCCN)C(=O)NCCOCCOCC(=O)NCCCCCCCCCCC(=O)O)NC(=O)[C@H](CO)NC(=O)[C@H](C(C)C)NC(=O)[C@H](CC(C)C)NC(=O)[C@H](CCN)NC(=O)[C@@H](CC(C)C)NC(=O)[C@H](CCCN)NC1=O` (stereo partly drawn) [Compound 3090] ({CH2CO}-[Thr(3ξ)]Y(Carboxymethyl)DWV[Bip][Ile(3ξ)][Orn][dL][Dab]LVSC[dOrn][AEEA][Aun]-OH; thioether N-14), the IC50 worked out at 0.0998 µM.

As to `CCC(C)[C@@H]1NC(=O)[C@H](Cc2ccc(-c3ccccc3)cc2)NC(=O)[C@H](C(C)C)NC(=O)[C@H](Cc2cccc(C)c2)NC(=O)[C@H](CC(=O)O)NC(=O)[C@H](Cc2ccc(OCC(=O)O)cc2)NC(=O)[C@H](C(C)O)NC(=O)CSC[C@@H](C(=O)N[C@H](CCN)C(=O)NCCCCCCCCCCC(=O)O)NC(=O)[C@H](C(C)O)NC(=O)[C@H](C(C)C)NC(=O)[C@H](CC2CCCCC2)NC(=O)[C@H](CCN)NC(=O)[C@@H](CC(C)C)NC(=O)[C@H](CCCN)NC1=O` (stereo partly shown) [Compound 3091], the IC50 turned out to be 0.0269 µM.

Regarding `CCC(C)[C@@H]1NC(=O)[C@H](Cc2ccc(-c3ccccc3)cc2)NC(=O)[C@H](C(C)C)NC(=O)[C@H](Cc2cccc(C)c2)NC(=O)[C@H](CC(=O)O)NC(=O)[C@H](Cc2ccc(OCC(=O)O)cc2)NC(=O)[C@H](C(C)O)NC(=O)CSC[C@@H](C(=O)N[C@H](CCN)C(=O)NCCCCCCCCCCCC(=O)O)NC(=O)[C@H](C(C)O)NC(=O)[C@H](C(C)C)NC(=O)[C@H](CC2CCCCC2)NC(=O)[C@H](CCN)NC(=O)[C@@H](CC(C)C)NC(=O)[C@H](CCCN)NC1=O` (stereo partly shown) [Compound 3092], the IC50 is 0.022 µM.

On to `CCC(C)[C@@H]1NC(=O)[C@H](Cc2ccc(-c3ccccc3)cc2)NC(=O)[C@H](C(C)C)NC(=O)[C@H](Cc2cccc(C)c2)NC(=O)[C@H](CC(=O)O)NC(=O)[C@H](Cc2ccc(OCC(=O)O)cc2)NC(=O)[C@H](C(C)O)NC(=O)CSC[C@@H](C(=O)N[C@@H](CCN)C(=O)NCCCCCCCCCCCCC(=O)O)NC(=O)[C@H](CO)NC(=O)[C@H](C(C)C)NC(=O)[C@H](CC2CCCCC2)NC(=O)[C@H](CCN)NC(=O)[C@@H](CC(C)C)NC(=O)[C@H](CCCN)NC1=O` (stereo partly drawn) [Compound 3093] ({CH2CO}-[Thr(3ξ)]Y(Carboxymethyl)D[Phe(3-Me)]V[Bip][Ile(3ξ)][Orn][dL][Dab][Cha]VSC[Dab]-{NH(CH2)12COOH}; thioether N-14), for which the IC50 was determined as 0.0501 µM.

On to `CCC(C)[C@@H]1NC(=O)[C@H](Cc2ccc(-c3ccccc3)cc2)NC(=O)[C@H](C(C)C)NC(=O)[C@H](Cc2cccc(C)c2)NC(=O)[C@H](CC(=O)O)NC(=O)[C@H](Cc2ccc(OCC(=O)O)cc2)NC(=O)[C@H](C(C)O)NC(=O)CSC[C@@H](C(=O)NCCOCCOCC(=O)N[C@@H](CCCCN)C(=O)NCCCCCCCCCCCC(=O)O)NC(=O)[C@H](C(C)O)NC(=O)[C@H](C(C)C)NC(=O)[C@H](CC2CCCCC2)NC(=O)[C@H](CCN)NC(=O)[C@@H](CC(C)C)NC(=O)[C@H](CCCN)NC1=O` (stereo partly drawn) [Compound 3095] ({CH2CO}-[Thr(3ξ)]Y(Carboxymethyl)D[Phe(3-Me)]V[Bip][Ile(3ξ)][Orn][dL][Dab][Cha]V[Thr(3ξ)]C[AEEA]K[12Ado]-OH; thioether N-14), for which the IC50 is 0.0101 µM.

For `CCC(C)[C@@H]1NC(=O)[C@H](Cc2ccc(-c3ccccc3)cc2)NC(=O)[C@H](C(C)C)NC(=O)[C@H](Cc2c[nH]c3ccccc23)NC(=O)[C@H](CC(=O)O)NC(=O)[C@H](Cc2ccc(OCC(=O)O)cc2)NC(=O)[C@H](CCN)NC(=O)CSC[C@@H](C(=O)NCCOCCOCC(=O)N[C@@H](CCCCN)C(=O)NCCCCCCCCCCCC(=O)O)NC(=O)[C@H](C(C)O)NC(=O)[C@H](C(C)C)NC(=O)[C@H](CC2CCCCC2)NC(=O)[C@H](CCN)NC(=O)[C@@H](CC(C)C)NC(=O)[C@H](CCCN)NC1=O` (stereo partly drawn) [Compound 3096] ({CH2CO}-[Dab]Y(Carboxymethyl)DWV[Bip][Ile(3ξ)][Orn][dL][Dab][Cha]V[Thr(3ξ)]C[AEEA]K[12Ado]-OH; thioether N-14), the 50% inhibitory concentration (IC50) turned out to be 0.0121 µM.

Take `CCC(C)[C@@H]1NC(=O)[C@H](Cc2ccc(-c3ccccc3)cc2)NC(=O)[C@H](C(C)C)NC(=O)[C@H](Cc2c[nH]c3ccccc23)NC(=O)[C@H](CC(=O)O)NC(=O)[C@H](Cc2ccc(OCC(=O)O)cc2)NC(=O)[C@H](C(C)O)NC(=O)CSC[C@@H](C(=O)N[C@@H](CCCN)C(=O)NCCCCCCCCCCCC(=O)O)NC(=O)[C@H](C(C)O)NC(=O)[C@H](C(C)C)NC(=O)[C@H](CC2CCCCC2)NC(=O)[C@H](CCN)NC(=O)[C@@H](CC(C)C)NC(=O)[C@H](CCCN)NC1=O` (stereo partly drawn) [Compound 3097] ({CH2CO}-[Thr(3ξ)]Y(Carboxymethyl)DWV[Bip][Ile(3ξ)][Orn][dL][Dab][Cha]V[Thr(3ξ)]C[Orn][12Ado]-OH; thioether N-14): the IC50 is 0.0228 µM.

On to `CCC(C)[C@@H]1NC(=O)[C@H](Cc2ccc(-c3ccccc3)cc2)NC(=O)[C@H](C(C)C)NC(=O)[C@H](Cc2cccc(C)c2)NC(=O)[C@H](CC(=O)O)NC(=O)[C@H](Cc2ccc(OCC(=O)O)cc2)NC(=O)[C@H](C(C)O)NC(=O)CSC[C@@H](C(=O)N[C@@H](CCCN)C(=O)NCCCCCCCCCCCC(=O)O)NC(=O)[C@H](C(C)O)NC(=O)[C@H](C(C)C)NC(=O)[C@H](CC2CCCCC2)NC(=O)[C@H](CCN)NC(=O)[C@@H](CC(C)C)NC(=O)[C@H](CCCN)NC1=O` (stereo partly shown) [Compound 3098], for which the IC50 was 0.0256 µM.
